Results reported in ChEMBL document CHEMBL4414638, “Structure-Activity Relationship of Peptide-Conjugated Chloramphenicol for Inhibiting Escherichia coli” (J Med Chem, 2019).
Converted amounts (≈) assume the structure as drawn. One block for each molecule: values may come before it. The source made the active and inactive calls. The rule behind the calls is not given here. *1 amine or outer side, *2 acyl side, *3 side chain or, on linkers, in order; H or OH if unused. Where a SMILES comes first, the peptide text is derived from it. [ ]: non-standard residue; d: D form. The star is where a group is joined. X1 = O=C(CCC(=O)[*:2])OC[C@@H](N[*:1])[C@H](O)c1ccc([N+](=O)[O-])cc1; Dichloroacetyl = O=C(C(Cl)Cl)*

Experiments:
[1] = system: Escherichia coli; assay: Antibacterial activity against Escherichia coli K-12 assessed as reduction in bacterial growth incubated for 16 hrs; assay type: functional; conditions: K-12, 16 h
[2] = system: Escherichia coli; assay: Antibacterial activity against Escherichia coli K-12 assessed as reduction in bacterial growth incubated for 16 hrs in presence of porcine liver esterase; assay type: functional; conditions: K-12, 16 h
[3] = system: Escherichia coli; assay: Antibacterial activity against Escherichia coli K-12 assessed as reduction in bacterial growth incubated for 16 hrs in absence of porcine liver esterase; assay type: functional; conditions: K-12, 16 h
[4] = Drug metabolism in Escherichia coli K-12 lysates assessed as esterase-mediated drug hydrolysis at 200 uM incubated up to 24 hrs by HPLC analysis; assay type: ADME, subcellular, Lysate; conditions: escherichia coli k-12, isolated protein
[5] = Drug metabolism in human HepG2 cells lysates assessed as esterase-mediated drug hydrolysis at 200 uM incubated up to 24 hrs by HPLC analysis; assay type: ADME, subcellular, Lysate; conditions: hepg2, 24 h
[6] = Drug metabolism in Escherichia coli K-12 lysates assessed as esterase-mediated drug hydrolysis by measuring apparent first-order rate constant at 200 uM incubated up to 24 hrs by HPLC analysis; assay type: ADME, subcellular, Lysate; conditions: escherichia coli k-12, isolated protein
[7] = system: Escherichia coli; assay: Antibacterial activity against ydgR gene deficient Escherichia coli assessed as reduction in bacterial growth at 0.1 to 100 uM incubated for 16 hrs; assay type: functional, organism-based
[8] = system: Escherichia coli; assay: Antibacterial activity against fepA gene deficient Escherichia coli assessed as reduction in bacterial growth at 0.1 to 100 uM incubated for 16 hrs; assay type: functional, organism-based
[9] = system: Escherichia coli; assay: Antibacterial activity against ompF gene deficient Escherichia coli assessed as reduction in bacterial growth at 0.1 to 100 uM incubated for 16 hrs; assay type: functional, organism-based
[10] = system: Escherichia coli; assay: Antibacterial activity against acrA gene deficient Escherichia coli assessed as reduction in bacterial cell viability at 0.1 to 100 uM incubated for 16 hrs relative to control; assay type: functional
[11] = system: Escherichia coli; assay: Antibacterial activity against bioH gene deficient Escherichia coli assessed as reduction in bacterial growth at 0.1 to 100 uM incubated for 16 hrs; assay type: functional, organism-based
[12] = system: Escherichia coli; assay: Antibacterial activity against yjfP gene deficient Escherichia coli assessed as reduction in bacterial growth at 0.1 to 100 uM incubated for 16 hrs; assay type: functional, organism-based
[13] = system: Escherichia coli; assay: Antibacterial activity against frsA gene deficient Escherichia coli assessed as reduction in bacterial growth at 0.1 to 100 uM incubated for 16 hrs; assay type: functional, organism-based
[14] = system: Escherichia coli; assay: Antibacterial activity against ybfF gene deficient Escherichia coli assessed as reduction in bacterial growth at 0.1 to 100 uM incubated for 16 hrs; assay type: functional, organism-based
[15] = system: Escherichia coli; assay: Antibacterial activity against yfbB gene deficient Escherichia coli assessed as reduction in bacterial growth at 0.1 to 100 uM incubated for 16 hrs; assay type: functional, organism-based
[16] = system: Escherichia coli; assay: Antibacterial activity against ypfH gene deficient Escherichia coli assessed as reduction in bacterial growth at 0.1 to 100 uM incubated for 16 hrs; assay type: functional, organism-based
[17] = system: Escherichia coli; assay: Antibacterial activity against yeiG gene deficient Escherichia coli assessed as reduction in bacterial growth at 0.1 to 100 uM incubated for 16 hrs; assay type: functional, organism-based
[18] = system: Escherichia coli; assay: Antibacterial activity against yqiA gene deficient Escherichia coli assessed as reduction in bacterial growth at 0.1 to 100 uM incubated for 16 hrs; assay type: functional, organism-based
[19] = Drug metabolism in human serum assessed as formation of chloramphenicol at 200 uM at 37 degC after 24 hrs by LC-MS analysis relative to control
[20] = system: HEK293; assay: Cytotoxicity in human HEK293 cells assessed as reduction in cell viability at 20 uM […] relative to chloramphenicol; assay type: cell-based; conditions: hek293, 20 µM
[21] = Cytotoxicity in human HS5 cells assessed as reduction in cell viability at 20 uM to 2 mM incubated up to […]rs relative to chloramphenicol; assay type: cell-based

Compound: O=C(O)CNC(=O)[C@@H](CO)NC(=O)CCC(=O)OC[C@@H](NC(=O)C(Cl)Cl)[C@H](O)c1ccc([N+](=O)[O-])cc1
- MIC [1]: 40 µM (≈ 22.7 µg/mL)
- MIC [2]: 40 µM
- MIC [3]: 40 µM (≈ 22.7 µg/mL)
- Drug metabolism [4]: Metabolite_Detected
- Drug metabolism [5]: Metabolite_Detected
- K [6]: 1.267 h⁻¹
- Activity [7]: Active
- Activity [8]: Active
- Activity [9]: Active
- Activity [10]: 40%
- Activity [11]: inactive
- Activity [12]: inactive
- Activity [13]: inactive
- Activity [14]: inactive
- Activity [15]: inactive
- Activity [16]: inactive
- Activity [17]: inactive
- Activity [18]: inactive
- Drug metabolism [19]: Metabolite_Detected

Compound: NCCCC[C@@H](NC(=O)[C@@H](CCCCN)NC(=O)CCC(=O)OC[C@@H](NC(=O)C(Cl)Cl)[C@H](O)c1ccc([N+](=O)[O-])cc1)C(=O)O
- MIC [1]: 200 µM (≈ 136 µg/mL)
- MIC [2]: 100 µM
- MIC [3]: 200 µM (≈ 136 µg/mL)
- Drug metabolism [4]: Metabolite_Detected
- Drug metabolism [5]: Metabolite_Detected
- K [6]: 0.317 h⁻¹
- Activity [7]: Active
- Activity [8]: Active
- Activity [9]: Active
- Activity [10]: 20%
- Activity [11]: inactive
- Activity [12]: inactive
- Activity [13]: inactive
- Activity [14]: inactive
- Activity [15]: inactive
- Activity [16]: inactive
- Activity [17]: inactive
- Activity [18]: inactive
- Drug metabolism [19]: Metabolite_Detected

Compound: O=C(N[C@H](CO)[C@H](O)c1ccc([N+](=O)[O-])cc1)C(Cl)Cl [CHLORAMPHENICOL]
- MIC [1]: 20 µM (≈ 6.46 µg/mL)
- Activity [20]: Toxic

Compound: CNC(=O)CNC(=O)CNC(=O)CCC(=O)OC[C@@H](NC(=O)C(Cl)Cl)[C@H](O)c1ccc([N+](=O)[O-])cc1
- MIC [1]: 20 µM (≈ 11 µg/mL)
- Activity [21]: Non-Toxic
- Activity [20]: Toxic

Compound: O=C(CCC(=O)OC[C@@H](NC(=O)C(Cl)Cl)[C@H](O)c1ccc([N+](=O)[O-])cc1)NCC(=O)NCC(=O)N[C@H](Cc1ccccc1)C(=O)N[C@H](Cc1ccccc1)C(=O)O
- MIC [1]: 20 µM (≈ 16.6 µg/mL)
- Activity [21]: Non-Toxic
- Activity [20]: Toxic
- Drug metabolism [19]: Metabolite_Detected

Compound: O=C(CCC(=O)OC[C@@H](NC(=O)C(Cl)Cl)[C@H](O)c1ccc([N+](=O)[O-])cc1)NCCOP(=O)(O)O
- MIC [1]: 100 µM (≈ 54.6 µg/mL)

Compound: O=C(O)CCC(=O)OC[C@@H](NC(=O)C(Cl)Cl)[C@H](O)c1ccc([N+](=O)[O-])cc1 [CHLORAMPHENICOL SUCCINIC ACID]
- MIC [1]: > 200 µM
- Activity [21]: Non-Toxic
- Activity [20]: Toxic

Compound: O=C(O)CNC(=O)CNC(=O)CNC(=O)CNC(=O)CNC(=O)CCC(=O)OC[C@@H](NC(=O)C(Cl)Cl)[C@H](O)c1ccc([N+](=O)[O-])cc1 (Dichloroacetyl-[X1]GGGGG-OH)
- MIC [1]: 40 µM (≈ 28.3 µg/mL)

Compound: COC(=O)CCC(=O)OC[C@@H](NC(=O)C(Cl)Cl)[C@H](O)c1ccc([N+](=O)[O-])cc1
- MIC [1]: > 200 µM

More lines, main results first:

- MIC [1]: > 200 µM
Compound: O=C(CCC(=O)OC[C@@H](NC(=O)C(Cl)Cl)[C@H](O)c1ccc([N+](=O)[O-])cc1)N[C@H](Cc1ccccc1)C(=O)N[C@H](Cc1ccccc1)C(=O)N[C@H](Cc1ccc2ccccc2c1)C(=O)O

- MIC [1]: 200 µM (≈ 195 µg/mL)
Compound: NCCCC[C@@H](NC(=O)[C@@H](CCCCN)NC(=O)[C@@H](Cc1ccccc1)NC(=O)[C@@H](Cc1ccccc1)NC(=O)CCC(=O)OC[C@@H](NC(=O)C(Cl)Cl)[C@H](O)c1ccc([N+](=O)[O-])cc1)C(=O)O

- MIC [1]: 20 µM (≈ 11 µg/mL)
Compound: C[C@@H](NC(=O)CNC(=O)CCC(=O)OC[C@@H](NC(=O)C(Cl)Cl)[C@H](O)c1ccc([N+](=O)[O-])cc1)C(=O)O
- Activity [21]: Non-Toxic
- Activity [20]: Toxic

- MIC [1]: 200 µM (≈ 131 µg/mL)
Compound: O=C(O)C[C@H](NC(=O)[C@H](CC(=O)O)NC(=O)CCC(=O)OC[C@@H](NC(=O)C(Cl)Cl)[C@H](O)c1ccc([N+](=O)[O-])cc1)C(=O)O

- MIC [1]: 80 µM (≈ 50.9 µg/mL)
Compound: C[C@@H](NC(=O)[C@@H](C)NC(=O)[C@@H](C)NC(=O)CCC(=O)OC[C@@H](NC(=O)C(Cl)Cl)[C@H](O)c1ccc([N+](=O)[O-])cc1)C(=O)O

- MIC [1]: 80 µM (≈ 54.8 µg/mL)
Compound: O=C(O)CNC(=O)CNC(=O)[C@H](Cc1ccccc1)NC(=O)CCC(=O)OC[C@@H](NC(=O)C(Cl)Cl)[C@H](O)c1ccc([N+](=O)[O-])cc1

- MIC [1]: 100 µM (≈ 56.5 µg/mL)
Compound: C[C@H](NC(=O)[C@H](C)NC(=O)CCC(=O)OC[C@@H](NC(=O)C(Cl)Cl)[C@H](O)c1ccc([N+](=O)[O-])cc1)C(=O)O
